The values below come from EP4644392A1, “PYRIDAZINE FUSED ARYL RING COMPOUND AND USE THEREOF” (Chia Tai Tianqing Pharmaceutical Group Co., Ltd., priority 2022, dated 2024).

Like-named read-outs stand apart in the source and are kept apart here.

A short description of series [1]: In-vitro stability in liver microsomes. As to conditions: human liver microsomes 0.5 mg/mL, NADPH, 37 °C, 1 h. For orientation: Liver microsomes are a subcellular fraction often used to study metabolism.
Another series concerns J774A.1 cells. The series is described as follows: Anti-pyroptosis activity assay in J774A.1 cells (CCK-8 readout, nigericin stimulation). The class given is cell-based. The following applies: Mus musculus, J774.A1, nigericin 10 µM.
In series [2] the test system is IL-1β expression in THP-1 cells. The series is described as follows: In-vitro THP-1 cell (IL-1β) expression assay (LPS + nigericin, ELISA). The class given is cell-based. The following applies: Homo sapiens; for inhibition at 0.001 µM: THP-1, read-out: 1 nM (% inhibition); for inhibition at 0.01 µM: THP-1, read-out: 10 nM (% inhibition); for inhibition at 0.1 µM: THP-1, read-out: 100 nM (% inhibition). The method, then:
THP-1 cells in good growth status were collected into a centrifuge tube, and the cell density was adjusted to 2 × 10^6 cells/mL. The cells were then seeded into a 96-well plate (50 µL/well), and meanwhile, LPS (manufacturer: Sigma; 50 µL/well) was added at a final concentration of 100 ng/mL. The plate was then incubated at 37 °C with 5% CO2 for 3 h. […] The plate was incubated at 37 °C with 5% CO2 for 1 h. Nigericin (manufacturer: Millipore; 50 µL/well) was added at a final concentration of 10 µM, and the plate was incubated at 37 °C with 5% CO2 for 1 h and then centrifuged at 1500 rpm for 3 min. The supernatant was collected and stored at -20 °C for subsequent detection of human IL-1β.
Human IL-1β detection (manufacturer: R&D): Human IL-1β Capture Antibody (coating antibody) was added to a high-binding 96-well plate at a final concentration of 4 µg/mL (100 µL/well), and the plate was incubated at 4 °C overnight. The supernatant was discarded, and the plate was washed with PBST (300 µL/well, 3 times in total). A 1% BSA-PBS blocking buffer was added (200 µL/well), and the plate was blocked at 25 °C for 2 h. The supernatant was discarded, and the plate was washed with PBST (300 µL/well, 3 times in total). A standard curve sample and the diluted samples to be tested were then added (100 µL/well), and the plate was incubated at 25 °C for 2 h. The supernatant was discarded, and the plate was washed with PBST (300 µL/well, 3 times total). Human IL-1β Detection Antibody (detection secondary antibody) was added at a final concentration of 200 ng/mL (100 µL/well), and the plate was incubated at 25 °C for 2 h. The supernatant was discarded, and the plate was washed with PBST (300 µL/well, 3 times in total). Streptavidin-HRP (detection tertiary antibody) was then added (100 µL/well), and the plate was incubated at 25 °C for 20 min. The supernatant was discarded, and the plate was washed with PBST (300 µL/well, 3 times in total). TMB was added for color development (100 µL/well), and the plate was incubated at 25 °C for 5 min. Finally, 1 M H2SO4 was added to terminate the reaction (50 µL/well). Absorbance values were measured at 450/570 nm using a PerkinElmer Envision microplate reader. Data were analyzed using a four-parameter model to calculate the IL-1β expression amount and inhibition rate. […]

The conditions of series [3]: microsomes, 1 h.

The term EC50 denotes the concentration at which the effect is half-maximal. A word on the inhibition: it is the change of the read-out against control, counted positive when it falls. As for `CN1CCC[C@@H](Nc2nnc(-c3ccc(C(F)(F)F)cc3O)n3cccc23)C1` [Example 1], the “Human Remaining amount at 60 min (%)” value in series [1] is recorded as 95.57%. The EC50 in the series on J774A.1 cells is less than 100 nM. In addition, in series [2], the inhibition at 0.001 µM is no less than 50% and the inhibition at 0.01 µM is no less than 50%.

As to `CN1CCC[C@@H](Nc2nnc(-c3ccc(C(F)(F)F)cc3O)c3cc4sccc4n23)C1` [Example 2], in series [3], the “Human Remaining amount at 60 min (%)” value was 80.23%. In addition, the EC50 with J774A.1 cells was less than 100 nM. Further, in series [2], the inhibition at 0.001 µM was in the range of 10 to 50%, the inhibition at 0.01 µM was in the range of 10 to 50% and the inhibition at 0.1 µM was no less than 50%.

Regarding `CN1CCC[C@@H](Nc2nnc(-c3ccc(C(F)(F)F)cc3O)n3c2cc2sccc23)C1` [Example 3], the EC50 in the series on J774A.1 cells was in the range of 100 to 1000 nM. Further, in series [2], the inhibition at 0.001 µM was in the range of 10 to 50%, the inhibition at 0.01 µM fell in the range of 10 to 50% and the inhibition at 0.1 µM is no less than 50%.

`CN1CCC[C@@H](Nc2nnc(-c3ccc(C(F)(F)F)cc3O)c3c4c(cn23)CCC4)C1` [Example 4]: the EC50 in the series on J774A.1 cells was 100 to 1000 nM. Further, in series [2], the inhibition at 0.001 µM lay in the range of 10 to 50%, the inhibition at 0.01 µM lay within 10 to 50% and the inhibition at 0.1 µM was no less than 50%.

With `CN1CCC[C@@H](Nc2nnc(-c3ccc(C(F)(F)F)cc3O)n3cc4c(c23)CCC4)C1` [Example 5], the “Human Remaining amount at 60 min (%)” value in series [1] came to 72.41%. In addition, in the series with J774A.1 cells, the EC50 is less than 100 nM. Moreover, in series [2], the inhibition at 0.001 µM is 10 to 50%, the inhibition at 0.01 µM was no less than 50% and the inhibition at 0.1 µM is no less than 50%.

On to `CN1CCC[C@@H](Nc2nnc(-c3ccc(C(F)(F)F)cc3O)c3cc4c(n23)CCC4)C1` [Example 6], for which the EC50 in the series on J774A.1 cells was in the range of 100 to 1000 nM. For the same molecule, in series [2], the inhibition at 0.001 µM was in the range of 10 to 50%, the inhibition at 0.01 µM is 10 to 50% and the inhibition at 0.1 µM was no less than 50%.

On to `CN1CCC[C@@H](Nc2nnc(-c3ccc(C(F)(F)F)cc3O)n3c4c(cc23)CCC4)C1` [Example 7], for which the “Human Remaining amount at 60 min (%)” value in series [1] came to 90.01%.

For the molecule `OCCN1CCC[C@@H](Nc2nnc(-c3ccc(C(F)(F)F)cc3O)n3cc4c(c23)CCC4)C1` [Example 8], in series [1], the “Human Remaining amount at 60 min (%)” value is 79.13%.

Regarding `C#Cc1ccc(-c2nnc(N[C@@H]3CCCN(C)C3)c3cccn23)c(O)c1` [Example 9], in series [1], the “Human Remaining amount at 60 min (%)” value worked out at 98.65%. The same molecule had an EC50 in the series with J774A.1 cells of less than 100 nM. In series [2], the inhibition at 0.001 µM is no less than 50%, the inhibition at 0.01 µM was no less than 50% and the inhibition at 0.1 µM is no less than 50%.

Regarding `CC#Cc1ccc(-c2nnc(N[C@@H]3CCCN(C)C3)c3cccn23)c(O)c1` [Example 10], the “Human Remaining amount at 60 min (%)” value in series [1] worked out at 99.00%.

Turning to `C#Cc1ccc(-c2nnc(N[C@@H]3CCCN(C)C3)c3c4c(cn23)CCC4)c(O)c1` [Example 11], in series [1], the “Human Remaining amount at 60 min (%)” value was 75.56%.

Consider `C=Cc1ccc(-c2nnc(N[C@@H]3CCCN(C)C3)c3cccn23)c(O)c1` [Example 12], for which the “Human Remaining amount at 60 min (%)” value in series [1] is 100.53%. In addition, in series [2], the inhibition at 0.001 µM was no less than 50%, the inhibition at 0.01 µM was no less than 50% and the inhibition at 0.1 µM was no less than 50%.

Molecule `CN1CCC[C@@H](Nc2nnc(-c3ccc(Cl)cc3O)n3cccc23)C1` [Example 13] came in with an EC50 in the series with J774A.1 cells of less than 100 nM.

As for `OCCN1CCC[C@@H](Nc2nnc(-c3ccc(C(F)(F)F)cc3O)c3c4c(cn23)CCC4)C1` [Example 14], the “Human Remaining amount at 60 min (%)” value in series [1] is 93.13%.

Turning to `C[C@]1(O)C[C@@H](Nc2nnc(-c3ccc(C(F)(F)F)cc3O)n3cccc23)C1` [Example 15], the 50% effective concentration (EC50) in the series with J774A.1 cells was in the range of 100 to 1000 nM.

`Oc1cc(C(F)(F)F)ccc1-c1nnc(N[C@@H]2COC[C@H]2O)c2c3c(cn12)CCC3` [Example 16] showed a concentration giving a half-maximal response (EC50) in the series with J774A.1 cells of 100 to 1000 nM.

As to `Oc1cc(C(F)(F)F)ccc1-c1nnc(N[C@@H]2COC[C@@H]2O)c2c3c(cn12)CCC3` [Example 17], the 50% effective concentration (EC50) with J774A.1 cells was in the range of 100 to 1000 nM.

In the series with J774A.1 cells, `Oc1cc(Cl)ccc1-c1nnc(N[C@@H]2COC[C@H]2O)c2c3c(cn12)CCC3` [Example 18] gave an EC50 of 100 to 1000 nM.

`Oc1cc(C(F)(F)F)ccc1-c1nnc(N[C@@H]2CCCC[C@H]2O)c2c3c(cn12)CCC3` [Example 21] returned an EC50 in the series with J774A.1 cells of less than 100 nM.

Consider `CS(=O)(=O)N1CCC[C@@H](Nc2nnc(-c3ccc(C(F)(F)F)cc3O)n3cccc23)C1` [Example 22], for which the EC50 with J774A.1 cells lay within 100 to 1000 nM.

In the case of `NS(=O)(=O)N1CCC[C@@H](Nc2nnc(-c3ccc(C(F)(F)F)cc3O)n3cccc23)C1` [Example 23], the “Human Remaining amount at 60 min (%)” value in series [1] worked out at 93.93%. In the series with J774A.1 cells, this molecule gave an EC50 of less than 100 nM.

As to `O=S(=O)(C1CC1)N1CCC[C@@H](Nc2nnc(-c3ccc(C(F)(F)F)cc3O)n3cccc23)C1` [Example 24], the EC50 with J774A.1 cells lay in the range of 100 to 1000 nM.

`CS(=N)(=O)N1CCC[C@@H](Nc2nnc(-c3ccc(C(F)(F)F)cc3O)n3cccc23)C1` (stereo partly shown) [Example 25]: the “Human Remaining amount at 60 min (%)” value in series [1] worked out at 98.06%. In addition, the EC50 with J774A.1 cells lay in the range of 100 to 1000 nM.
